Test results reported in article PMC9250534, “Synthesis and direct assay of large macrocycle diversities by combinatorial late-stage modification at picomole scale” (Nature Communications, 2022).
Numbered stars: 1 amine (or outer) side, 2 acyl side, 3 side chain; on linkers, the order of the positions; unused ones are H or OH. Bridge positions count the residues as written; N and C are the ends. Square brackets hold non-standard residues; d marks the D form. Peptide text beside a SMILES is read from it. * marks the point of attachment. Pyrazinoyl(5-oxo-4H) = O=C(c1c[nH]c(=O)cn1)*; 1,2,3Thiadiazole5CO(4-Me) = Cc1nnsc1C(=O)*; Nicotinoyl(6-OMe) = COc1ccc(C(=O)*)cn1; 2Thenoyl(5-Cl) = O=C(c1ccc(Cl)s1)*; Phenoxyacetyl = O=C(COc1ccccc1)*; Cysteamide = C(CS[*:3])N[*:1]; X3 = O=C(Cc1c[nH]c2ccccc12)*; 2Furoyl = O=C(c1ccco1)*; Mpa = O=C(O)CCS

Target: MDM2 (Homo sapiens, UniProt Q00987)
Sequence (Q00987 whole entry): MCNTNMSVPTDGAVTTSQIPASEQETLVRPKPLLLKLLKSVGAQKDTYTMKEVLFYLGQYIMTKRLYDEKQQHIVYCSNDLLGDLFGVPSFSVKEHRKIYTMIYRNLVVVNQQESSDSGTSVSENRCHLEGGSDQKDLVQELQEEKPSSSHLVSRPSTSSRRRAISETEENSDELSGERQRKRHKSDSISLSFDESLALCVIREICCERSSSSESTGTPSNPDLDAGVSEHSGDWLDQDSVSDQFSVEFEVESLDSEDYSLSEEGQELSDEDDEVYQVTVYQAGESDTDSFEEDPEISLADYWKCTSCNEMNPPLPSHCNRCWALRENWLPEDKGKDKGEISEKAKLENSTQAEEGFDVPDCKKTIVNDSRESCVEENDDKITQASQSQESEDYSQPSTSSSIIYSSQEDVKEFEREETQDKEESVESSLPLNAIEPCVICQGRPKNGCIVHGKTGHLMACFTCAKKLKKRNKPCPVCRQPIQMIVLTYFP
Test: MDM2 binding screen of Libraries 3 and 4: displacement of fluorescent probe F-M8 at 750 nM macrocycle
Settings: Panel b, Library 3: 63 scaffolds combinatorially acylated with 15 carboxylic acids at 30 picomole scale; displacement of fluorescent peptide probe; macrocycle 750 nM
Protocol: The cyclic peptide scaffolds required for Libraries 3 and 4 were synthesized as described for those used in Library 2. Due to the presence of many N-methylated amino acids which are more difficult to couple, 200 mM HOAt was applied together with HATU. The scaffolds were diluted to 2 mM in DMSO, and 15 nL were transferred using acoustic dispensing, followed by 15 nL DMSO containing carboxylic acids (40 mM, 20 equiv.), HBTU (40 mM) and DABCO (40 mM). After 6 h reaction at room temperature, 370 nL of DMSO was added to each well, followed by 5 μL of 100 mM Tris-Cl pH 7.4 containing 0.01% v/v Tween20, for quenching overnight.

Row | SMILES | fraction of fluorescent probe displaced
1 | O=C1CCSSCCNC(=O)C(Cc2cccc3ccccc23)NC(=O)C(CNC(=O)C2CC2c2ccccc2)NC(=O)C2(CC2)CN1 (mixture of isomers) [X-Amcp-D-Dap-1-NaI + Acid 105] | -0.034
2 | CC(Oc1cccc(Cl)c1)C(=O)NCC1NC(=O)C2(CC2)CNC(=O)CCSSCCNC(=O)C(Cc2ccc3ccccc3c2)NC1=O (mixture of isomers) [X-Amcp-D-Dap-2-Nal + Acid 113] | -0.00533
3 | O=C1CCSSCCNC(=O)C(Cc2c[nH]c3ccccc23)NC(=O)C(CNC(=O)C2CC2c2ccccc2)NC(=O)C2(CC2)CN1 (mixture of isomers) [X-Amcp-D-Dap-D-Trp + Acid 105] | -0.041
4 | CN1C(=O)C(CNC(=O)C2COc3ccccc3O2)NC(=O)C2(CC2)CNC(=O)CCSSCCNC(=O)C1Cc1c[nH]c2ccccc12 (mixture of isomers) [X-Amcp-D-Dap-NMe-Trp + Acid 115] | 0.015
5 | CC(Oc1cccc(Cl)c1)C(=O)NCC1NC(=O)C2(CC2)CNC(=O)CCSSCCNC(=O)C(Cc2c[nH]c3cc(Cl)ccc23)NC1=O (mixture of isomers) [X-Amcp-Dap-Cl-Trp + Acid 113] | -0.019
6 | CC(Oc1cccc(Cl)c1)C(=O)NCC1NC(=O)C2(CC2)CNC(=O)CCSSCCNC(=O)C(Cc2c[nH]c3ccccc23)NC1=O (mixture of isomers) [X-Amcp-Dap-D-Trp + Acid 113] | -0.012
7 | CC(Oc1cccc(Cl)c1)C(=O)NCC1NC(=O)C2(CC2)CNC(=O)CCSSCCNC(=O)C(Cc2cn(C)c3ccccc23)NC1=O (mixture of isomers) [X-Amcp-Dap-Me-Trp + Acid 113] | 0.008
8 | CC(Oc1cccc(Cl)c1)C(=O)NCC1NC(=O)C2(CC2)CNC(=O)CCSSCCNC(=O)C(Cc2c[nH]c3ccccc23)NC1=O (mixture of isomers) [X-Amcp-Dap-Trp + Acid 113] | 0.00133
9 | O=C1CCSSCCNC(=O)C(Cc2c[nH]c3ccccc23)NC(=O)C(CNC(=O)C2COc3ccccc3O2)NC(=O)C2(CC2)CN1 (mixture of isomers) [X-Amcp-Dap-Trp + Acid 115] | 0.00133
10 | O=C1CCSSCCNC(=O)C(Cc2cccc3ccccc23)NC(=O)CN(CCNC(=O)C2COc3ccccc3O2)C(=O)C2(CC2)CN1 (mixture of isomers) [X-Amcp-N-Aeg-1-NaI + Acid 115] | -0.00533
11 | O=C1CCSSCCNC(=O)C(Cc2ccc3ccccc3c2)NC(=O)CN(CCNC(=O)C2COc3ccccc3O2)C(=O)C2(CC2)CN1 (mixture of isomers) [X-Amcp-N-Aeg-2-Nal + Acid 115] | 0.015
12 | CC(Oc1cccc(Cl)c1)C(=O)NCCN1CC(=O)NC(Cc2c[nH]c3cc(Cl)ccc23)C(=O)NCCSSCCC(=O)NCC2(CC2)C1=O (mixture of isomers) [X-Amcp-N-Aeg-Cl-Trp + Acid 113] | -0.019
13 | CC(Oc1cccc(Cl)c1)C(=O)NCCN1CC(=O)NC(Cc2cn(C)c3ccccc23)C(=O)NCCSSCCC(=O)NCC2(CC2)C1=O (mixture of isomers) [X-Amcp-N-Aeg-Me-Trp + Acid 113] | 0.015
14 | CC(Oc1cccc(Cl)c1)C(=O)NCC1NC(=O)C2CCCN(C2)C(=O)CCSSCCNC(=O)C(Cc2ccc3ccccc3c2)NC1=O (mixture of isomers) [X-Nip-D-Dap-2-Nal + Acid 113] | -0.012
15 | CC(Oc1cccc(Cl)c1)C(=O)NCC1NC(=O)C2CCCN(C2)C(=O)CCSSCCNC(=O)C(Cc2c[nH]c3ccccc23)N(C)C1=O (mixture of isomers) [X-Nip-D-Dap-NMe-Trp + Acid 113] | 0.00133
16 | O=C1NC(CNC(=O)C2COc3ccccc3O2)C(=O)NC(Cc2c[nH]c3ccccc23)C(=O)NCCSSCCC(=O)N2CCCC1C2 (mixture of isomers) [X-Nip-D-Dap-Trp + Acid 115] | 0.00133
17 | CC(Oc1cccc(Cl)c1)C(=O)NCC1NC(=O)C2CCCN(C2)C(=O)CCSSCCNC(=O)C(Cc2c[nH]c3ccccc23)NC1=O (mixture of isomers) [X-Nip-Dap-Trp + Acid 113] | -0.00533
18 | CC(Oc1cccc(Cl)c1)C(=O)NCCN1CC(=O)NC(Cc2cccc3ccccc23)C(=O)NCCSSCCC(=O)N2CCCC(C2)C1=O (mixture of isomers) [X-Nip-N-Aeg-1-NaI + Acid 113] | -0.00533
19 | O=C(O)C1CC1c1ccccc1 (centres unmarked) [Acid 105] | -0.00844
20 | O=C(O)/C=C/c1ccncc1 [Acid 106] | 0.00455
21 | O=C(O)c1ccc2ccccc2c1 [Acid 107] | -0.002
22 | O=C(O)/C=C/c1ccc(Cl)cc1 [Acid 108] | 0.015
23 | O=C(O)/C=C/c1ccc(OCc2ccccc2)cc1 [Acid 110] | 0.035
24 | O=C(O)c1cccc(Oc2ccccc2)c1 [Acid 111] | 0.015
25 | CC(Oc1cccc(Cl)c1)C(=O)O (centres unmarked) [Acid 113] | -0.00533
26 | O=C(O)CCS(=O)(=O)c1ccccc1 [Acid 114] | 0.035

Same assay, conditions: Panel c, Library 4: best nine scaffolds and 15 additional carboxylic acids; displacement of fluorescent probe

Row | SMILES | fraction of fluorescent probe displaced
27 | O=C(O)/C=C/c1ccc(F)cc1 [Acid 116] | 0.036
28 | CCOc1ccc(/C=C/C(=O)O)cc1 [Acid 117] | 0.028
29 | CCCOc1ccc(/C=C/C(=O)O)cc1 [Acid 118] | 0.028
30 | O=C(O)/C=C/c1ccc(Cl)c(Cl)c1 [Acid 119] | 0.012
31 | O=C(O)/C=C/c1cccc(Cl)c1 [Acid 121] | -0.00464
32 | CC(=Cc1ccccc1)C(=O)O [Acid 123] | -0.00464
33 | CC(C)c1ccc(/C=C/C(=O)O)cc1 [Acid 127] | -0.021

Target: T1, thrombin (Homo sapiens, UniProt P00734)
T1 construct: consists of two polypeptide chains of 36 (light chain) and 259 amino acid
Test: Thrombin inhibition screen of crude macrocycle reactions (residual thrombin activity, fluorogenic substrate Z-Gly-Gly-Arg-AMC)
Assay type: biochemical
Settings: 10 µM macrocycle concentration; crude reactions, Library 1a-l; scaffold AA1-AA2-AA3 combined with 1-16 or '-'
In short: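 Each crude macrocycle (10 μM) was preincubated 10 min at room temperature with thrombin (2 nM final) in Tris-Cl pH 7.4 containing NaCl, MgCl2, CaCl2, 0.1% BSA, 0.01% Triton X-100 and 0.6% DMSO. Z-Gly-Gly-Arg-AMC (50 μM final) was then added. Inhibition came from fluorescence slopes relative to DMSO-only controls.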

Row | SMILES | percent residual thrombin activity [%]
34 | O=C(COc1ccccc1)NCCCC[C@@H]1NC(=O)CCNC(=O)[C@@H](CO)NC(=O)CCSSCCNC1=O [s-B2-D1/13] | 112.63
35 | O=C1CCNC(=O)[C@@H](CO)NC(=O)CCSSCCNC(=O)[C@H](CCCCNC(=O)c2ccco2)N1 [s-B2-D1/16] | 112.001
36 | COc1ccc(C(=O)NCCCC[C@@H]2NC(=O)[C@H]3CCCN(C3)C(=O)[C@@H](CO)NC(=O)CCSSCCNC2=O)cn1 [s-B4-D1/10] | 109.656
37 | O=C1CCSSCCNC(=O)[C@H](CCCCNC(=O)c2c[nH]c(=O)[nH]c2=O)NC(=O)[C@H]2CCCN(C2)C(=O)[C@@H](CO)N1 [s-B4-D1/11] | 112.975
38 | O=C(COc1ccccc1)NCCCC[C@@H]1NC(=O)[C@H]2CCCN(C2)C(=O)[C@@H](CO)NC(=O)CCSSCCNC1=O [s-B4-D1/13] | 112.216
39 | CC(C)[C@@H]1NC(=O)CCSSCCNC(=O)[C@@H]2CCCN2C(=O)[C@H](CCCCNC(=O)c2c[nH]c(=O)cn2)NC1=O [v-D1-B1/9] ([Mpa]VK(Pyrazinoyl(5-oxo-4H))P-Cysteamide; disulfide 1-C) | 99.656
40 | COc1ccc(C(=O)NCCCC[C@@H]2NC(=O)[C@H](C(C)C)NC(=O)CCSSCCNC(=O)[C@@H]3CCCN3C2=O)cn1 [v-D1-B1/10] ([Mpa]VK(Nicotinoyl(6-OMe))P-Cysteamide; disulfide 1-C) | 104.488
41 | CC(C)[C@@H]1NC(=O)CCSSCCNC(=O)[C@@H]2CCCN2C(=O)[C@H](CCCCNC(=O)Cc2c[nH]c3ccccc23)NC1=O [v-D1-B1/12] ([Mpa]VK(X3)P-Cysteamide; disulfide 1-C) | 99.643
42 | CC(C)[C@@H]1NC(=O)CCSSCCNC(=O)[C@@H]2CCCN2C(=O)[C@H](CCCCNC(=O)COc2ccccc2)NC1=O [v-D1-B1/13] ([Mpa]VK(Phenoxyacetyl)P-Cysteamide; disulfide 1-C) | 104.766
43 | CC(C)[C@@H]1NC(=O)CCSSCCNC(=O)[C@@H]2CCCN2C(=O)[C@H](CCCCNC(=O)c2ccc(Cl)s2)NC1=O [v-D1-B1/14] ([Mpa]VK(2Thenoyl(5-Cl))P-Cysteamide; disulfide 1-C) | 97.5215
44 | Cc1nnsc1C(=O)NCCCC[C@@H]1NC(=O)[C@H](C(C)C)NC(=O)CCSSCCNC(=O)[C@@H]2CCCN2C1=O [v-D1-B1/15] ([Mpa]VK(1,2,3Thiadiazole5CO(4-Me))P-Cysteamide; disulfide 1-C) | 105.611
45 | CC(C)[C@@H]1NC(=O)CCSSCCNC(=O)[C@@H]2CCCN2C(=O)[C@H](CCCCNC(=O)c2ccco2)NC1=O [v-D1-B1/16] ([Mpa]VK(2Furoyl)P-Cysteamide; disulfide 1-C) | 102.421
46 | O=C(Cc1c[nH]c2ccccc12)NCCCC[C@@H]1NC(=O)[C@@H](Cc2ccc(O)cc2)NC(=O)CCSSCCNC(=O)[C@@H]2CCCN2C1=O [y-D1-B1/12] ([Mpa][dY]K(X3)P-Cysteamide; disulfide 1-C) | 104.378
47 | O=C1CCSSCCNC(=O)[C@@H]2CCCN2C(=O)[C@H](CCCCNC(=O)c2ccco2)NC(=O)[C@@H](Cc2ccc(O)cc2)N1 [y-D1-B1/16] ([Mpa][dY]K(2Furoyl)P-Cysteamide; disulfide 1-C) | 104.272
